# Measurements as given in patent US20250249014A1, “A COMBINATION FOR TREATING A RETINAL DISEASE” (HADASIT MEDICAL RESEARCH SERVICES AND DEVELOPMENT LTD., priority 2022, published 2025).
# Where a name gives a salt, the structure may show the parent alone. Read-outs that look alike come from different tables or passages of the source.
# B1: Ranibizumab: a monoclonal antibody that inhibits VEGF (antibody, chains of the INN, looked up, V domains shown)
# VH: EVQLVESGGGLVQPGGSLRLSCAASGYDFTHYGMNWVRQAPGKGLEWVGWINTYTGEPTYAADFKRRFTFSLDTSKSTAYLQMNSLRAEDTAVYYCAKYPYYYGTSHWYFDVWGQGTLVTVSS
# VL: DIQLTQSPSSLSASVGDRVTITCSASQDISNYLNWYQQKPGKAPKVLIYFTSSLHSGVPSRFSGSGSGTDFTLTISSLQPEDFATYYCQQYSTVPWTFGQGTKVEIK
# Columns and labels:
# [1] = tested on: HUVECs; test: Cell proliferation assay (WST-1) on HUVECs, with synergy analysis; type: cell-based, Human; details: for IC50 (inhibitory concentration of 50% cell growth compared to control) / % of Inhibition ± SD / IC50: HUVECs proliferation; for % of Inhibition ± SD: maximal attainable concentration of each SMI (28.421 μM, 17.85 μM, 20.99 μM); for effect of addition to the Azeliragon and EHop-016 combination on proliferation inhibition: CCR2-RA-[R] 22.74 μM; for dose-proliferation inhibition relationship: increasing SMI concentration; for IC50: Homo sapiens, HUVEC
# Procedure: Cell proliferation assay—The principle of cell proliferation assay is illustrated in FIG. 1. Briefly, HUVECS were seeded and maintained in EGM™-2 (Lonza Bioscience Solutions) medium for 24 hours. The cells were then treated with various dosages of SMI for designated time periods. Each experiment included a DMSO-treated control group. Tetrazolium salt was added according to the manufacturer's instructions and formation of formazan dye was quantified by measuring the absorbance at 440 nm using spectrophotometer. The formation of formazan dye is directly proportional to number of living cells.
# Analysis of combined synergistic effect-Analysis of combined SMIs effect was determined from the results of the cell proliferation assay after 72 hours. SMIs synergy was determined by three synergy models. • 1. The Zero Interaction Potency (ZIP) model is a reference model for evaluating the effect of combination of two drugs by comparing the change in the potency of the dose-response curves between individual drugs and their combinations. A zip score higher than 10 is indicative of a synergistic combination, a zip score of between −10 and 10 is indicative of an additive combination and a zip score lower than −10 is indicative of an antagonistic combination. • 2. […] Values below 1 will represent synergism and above 1 antagonism.
# [2] = tested on: HUVECs; test: Endothelial cell migration assay (scratch test); type: cell-based, Human; details: EHop-016 0.8 μM at 11 hours, CCR2-RA-[R] 5 μM at 13 hours
# Procedure: Endothelial cell migration assay (scratch test)—5×10^4 cells/200 μl of HUVECs were cultured in 96 wells Incucyte® ImageLock 96-well microplates plates to near confluence in EGM™-2 medium for 24 hours. Afterwards, a homogeneous, 700-800-micron wide scratch wounds were created using Incucyte® WoundMaker. Different SMIs concentrations vs. DMSO (solvent) were added. Serial images for 26 hours of the migrating cells were obtained hourly using a live cell imaging system (Incucyte®).
# [3] = tested on: choroidal neovascularization (CNV); test: Laser-Induced CNV model; type: in vivo, C57BL/6J mice; details: dosage calibration assays; EHop-016 30 μM, Aflibercept 41.27 μM
# Procedure: Laser-Induced CNV Model—CNV was induced in C57BL/6J mice using argon green ophthalmic laser ([…], 50 μm, 0.1 sec) applied under fundoscopy to rupture Bruch's membrane. […] The injections were performed at the superotemporal sclera, where a perforating sclerotomy was made with 27-gauge (G) needle at approximately 1-2 mm from the limbus. Then, 1-2 μl of SMIs (solved in 5% Cremophor: 5% ethanol: 90% saline) vs. Sham were injected through the sclerotomy, under fundoscopy using 34 g microsyringe (Hamilton, Benfleet, UK).
# Quantification of CNV—Eyes were enucleated, treated according to standard protocols. […] The flat mounts were then washed six times for 20 min each in PBS and mounted on a slide using mounting medium. The area of CNV surrounding each laser injury was measured using ImageJ software.
# [4] = tested on: choroid explants; test: Choroid sprouting assay, ex-vivo; type: cell-based, C57BL/6J mice; details: 7 days; 0.55 μM Azeliragon, EHop-016 alone, 0.70 μM in combination; compared to untreated and DMSO
# Procedure: Plates were then incubated for 10 minutes in 37° C., in a 5% CO2 cell culture incubator without medium to solidify the Matrigel™. […] Fresh medium and SMIs were replaced every two days and grown for 7 days (x3 time medium replaced).
# [5] = tested on: Hypoxia-inducible factor 1-alpha (HIF-1α); test: Western blot of HIF-1α expression in HUVEC cells; type: cell-based, Human; details: 72 hours, combination Azeliragon 0.6 μM and EHop-016 1.3 μM
# Procedure: Western blot—5×10^4 HUVEC cells were seeded in 10 cm dish in EGM™-2 medium for 24 hours. The cells were then treated with various dosages and combinations of SMI for 72 hours in addition to a control group treated with DMSO. Cells were lysed in WCE (whole-cell extraction) buffer [25 mM Hepes, pH 7.7, 0.3 M NaCl, 1.5 mM MgCl2, 0.2 mM EDTA, 0.1% Triton X-100, 0.5 mM DTT (dithiothreitol), 20 mM 2-glycerophosphate, 0.1 mM Na3VO4, 100 μg/ml PMSF and protease inhibitor cocktail (Sigma-Aldrich, 1:100 dilution)]. The proteins were then separated by SDS/PAGE (10% gel), followed by transfer on to a nitrocellulose membrane. Blots were blocked in 5% (w/v) non-fat dried skimmed milk powder in PBS and washed in PBS.
# [6] = tested on: VEGF; details: diabetic macular edema patients; cited from earlier work
# [7] = HUVECs, single 72-hour treatment
# [8] = single 72-hour treatment, read-out: IC50 (inhibitory concentration of 50% cell growth compared to control)
# VEGF, sequence (P15692 207-311 limits assumed): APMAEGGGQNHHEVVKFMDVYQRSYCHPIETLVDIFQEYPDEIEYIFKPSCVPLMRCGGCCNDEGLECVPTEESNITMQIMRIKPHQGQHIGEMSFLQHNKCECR
molecule,measurement,setting,value
"CCN(CC)CCCC(C)Nc1nc(C)cc(Nc2ccc3nc(C)cc(N)c3c2)n1.Cl.Cl.Cl (stereo not shown) [NSC 23766 trihydrochloride, N6-[2-(4-Diethylamino-1-methyl-butylamino)-6-methyl-pyrimidin-4-yl]-2-methyl-quinoline-4,6-diamine trihydrochloride]",IC50 (inhibitory concentration of 50% cell growth compared to control),[1]; single 72-hour treatment,No effect
"O=C(CNC(=O)c1cccc(C(F)(F)F)c1)N[C@@H]1CCN(Cc2ccc(Cl)cc2)C1 [CCR2 antagonist 4 hydrochloride, N-[2-[[(3R)-1-[(4-chlorophenyl)methyl]-3-pyrrolidinyl]amino]-2-oxoethyl]-3-(trifluoromethyl)benzamidehydrochloride]",% of Inhibition ± SD,[1],13.8 ± 8.07%
"CC(=O)C1=C(O)C(=O)N(c2ccc(Cl)cc2F)[C@@H]1C1CCCCC1 [CCR2-RA-[R], (R)-4-Acetyl-1-(4-chloro-2-fluorophenyl)-5-cyclohexyl-3-hydroxy-1,5-dihydro-2H-pyrrol-2-one]",inhibition of HUVECs proliferation (summary in words),[1],did not show significant inhibition
same,% of Inhibition ± SD,[1],33.4 ± 4.30%
same,effect of addition to the Azeliragon and EHop-016 combination on proliferation inhibition,"[1]; HUVECs, 24-hour treatment",significantly augmented the proliferation inhibition effect
same,effect of addition to the Azeliragon and EHop-016 combination on proliferation inhibition,"[1]; HUVECs, 48- and 72-hour treatment",not
same,inhibition of HUVECs migration,[2],strongly inhibited cell migration
"Cc1ccc(NC(=O)c2cccc(OCc3c(C)noc3C)c2)cc1S(N)(=O)=O (racemic) [Z62954982, 3-((3,5-Dimethylisoxazol-4-yl)methoxy)-N-(4-methyl-3-sulfamoyl-phenyl)benzamide]",IC50 (inhibitory concentration of 50% cell growth compared to control),[1]; single 72-hour treatment,No effect
same,inhibitory effect with longer incubation time,"[1]; HUVECs, treatment time extended to 120 hours compared to 72-hour incubation",did not improve the inhibitory effect
"O=C(NCC(=O)N1CC[C@H](NC2CCC(O)(c3ccc(-c4ncccn4)cn3)CC2)C1)c1cccc(C(F)(F)F)c1 (stereo partly drawn) [PF-4136309, N-[2-[(3S)-3-[[4-hydroxy-4-(5-pyrimidin-2-ylpyridin-2-yl)cyclohexyl]amino]pyrrolidin-1-yl]-2-oxoethyl]-3-(trifluoromethyl)benzamide]",% of Inhibition ± SD,[1],25.7 ± 7.68%
"Aflibercept: Aflibercept (Eylea®), comparator injection in Laser-induced CNV model",CNV area,[3],dramatic effect
"CCn1c2ccccc2c2cc(Nc3ccnc(NCCCN4CCOCC4)n3)ccc21 [EHop-016, N4-(9-Ethyl-9H-carbazol-3-yl)-N2-[3-(4-morpholinyl)propyl]-2,4-pyrimidinediamine]",area of the sprouting vessels,[4],inhibited the area of the sprouting vessels
same,CNV area,[3],comparable to the dramatic effect received from Aflibercept injection
same,dependence of proliferation inhibition on the initial number of cells,[1]; HUVECs at 3×10^3 and 1×10^3 cells/well,independent from the initial number of cells
same,decrease of IC50 by daily dosing in comparison with IC50 of SD regimen,"[1]; HUVECs, 72 hours",more than a half
same,dose-proliferation inhibition relationship,[1]; [7],linear inhibition of proliferation
same,IC50,"[1]; daily dosing, 72 hours, read-out: IC50 following daily dosing regimen",1.24 µM
same,IC50,[1]; [8],2.31 µM
same,HIF-1α expression,[5],inhibited expression
same,inhibition of HUVECs migration,[2],strongest migration inhibitor
"COc1ccc(/C=C/c2cc(O)cc(O)c2)cc1 [4′-Methoxyresveratrol, 5-[(E)-2-(4-Methoxyphenyl)ethen-1-yl]benzene-1,3-diol]",dose-proliferation inhibition relationship,[1]; [7],linear inhibition of proliferation
same,IC50,[1]; [8],64 µM
"O=C(c1ccc(Cl)cc1)N(Cc1ccccc1)C1CCCCC1 [FPS-ZM1, 4-Chloro-N-cyclohexyl-N-(phenylmethyl)benzamide]",dose-proliferation inhibition relationship,[1]; [7],linear inhibition of proliferation
same,IC50,[1]; [8],30 µM
B1,"clinical outcome (vision, macular edema)",[6],rapidly and sustainably improved vision
